Patent US8765786B2, “1-substituted indazole derivative” (Dainippon Sumitomo Pharma Co., Ltd., priority 2012, dated 2014)

Each compound was assayed against T1, human α7 nAChR (Homo sapiens, UniProt P36544) (assay: Evaluation of PAM activity with human α7 nACh receptor stably expressing cells (aequorin luminescence, FDSS7000)). Settings: result in words; ratio of RLU (Max-Min) to control wells, ACh EC20.
T1 construct: expressed in transfected cells; host or cells: GH4C1 cells derived from rat pituitary (ATCC CCL-82.2)
Format: cell-based
How it was run: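 Rat pituitary GH4C1 cells stably expressing human α7 nAChR and aequorin, loaded 4 h at room temperature with 4 μmol/L substrate, in Hanks/20 mM HEPES pH 7.4. After compound then ACh addition, 465 nm luminescence recorded 138 s; PAM activity is RLU (Max-Min) ratio to control wells.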

T1 sequence (P36544 23-502): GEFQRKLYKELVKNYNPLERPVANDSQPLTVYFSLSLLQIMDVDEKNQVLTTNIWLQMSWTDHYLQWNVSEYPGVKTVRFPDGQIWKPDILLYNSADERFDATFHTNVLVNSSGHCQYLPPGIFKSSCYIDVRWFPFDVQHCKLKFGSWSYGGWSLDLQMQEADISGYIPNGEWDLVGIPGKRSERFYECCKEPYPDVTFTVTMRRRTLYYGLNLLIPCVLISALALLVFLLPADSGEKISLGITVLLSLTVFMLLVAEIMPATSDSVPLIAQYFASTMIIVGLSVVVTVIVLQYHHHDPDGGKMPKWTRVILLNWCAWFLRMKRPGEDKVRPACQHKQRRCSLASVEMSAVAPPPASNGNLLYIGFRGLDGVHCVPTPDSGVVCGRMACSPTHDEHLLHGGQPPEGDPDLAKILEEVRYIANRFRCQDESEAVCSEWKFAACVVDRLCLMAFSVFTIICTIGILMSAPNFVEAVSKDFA

SMILES | PAM activity for α7 nAChR
COc1ccc2c(cnn2C2CCN(C(=O)NC3CCC(F)(F)CC3)CC2)c1 [Example 41, N-(4,4-difluorocyclohexyl)-4-(5-methoxy-1H-indazol-1-yl)piperidine-1-carboxamide] | stronger PAM activity than others
CCc1ccc2c(cnn2C2CCN(C(=O)NC3CCCC3)CC2)c1 [Example 20] | stronger PAM activity than others

Same assay, conditions: test compound 10 μmol/L; ACh added at EC20; ratio of RLU (Max-Min) of test wells to control wells

SMILES | α7PAM (%) @ 10 μmol/L
COc1cccc2c1cnn2C1CCN(C(=O)NC2CCC(F)(F)CC2)CC1 [Example 182] | 742%
COCC1CCC(NC(=O)N2CCC(n3ncc4cc(OC(F)(F)F)ccc43)CC2)CC1 (stereo not shown) [Example 228] | 276%
CCc1ccc2c(c1)c(OC(C)C)nn2C1CCN(C(=O)NC2CCC(OC)CC2)CC1 (stereo not shown) [Example 59] | 433%
CC(C)Oc1ccc2c(cnn2C2CCN(C(=O)C3CCC(F)(F)CC3)CC2)c1 [Example 116] | 279%
CCO[C@H]1CC[C@H](NC(=O)N2CCC(n3ncc4c(C5CC5)cccc43)CC2)CC1 [Example 44] | 322%
COc1nn(C2CCN(C(=O)NC3CCOCC3)CC2)c2ccc(OC(F)(F)F)cc12 [Example 264] | 263%
O=C(C1CCOCC1)N1CCC(n2ncc3cc(Br)ccc32)CC1 [Example 102] | 228%
Cc1cccc2c1cnn2C1CCN(C(=O)NC2CCC(OC(F)F)CC2)CC1 (stereo not shown) [Example 97] | 117%
COc1ccc(CNC(=O)N2CCC(n3ncc4cc(C5CC5)ccc43)CC2)cc1 [Example 193] | 889%
O=C(C1CCOCC1)N1CCC(n2ncc3cc(F)ccc32)CC1 [Example 104] | 190%
COc1ccc2c(cnn2C2CCN(C(=O)NC3CCCCC3(F)F)CC2)c1 (stereo not shown) [Example 86] | 1481%
COc1ccc(C2(NC(=O)N3CCC(n4ncc5cc(C6CC6)ccc54)CC3)CC2)cc1 [Example 206] | 196%
CCCc1ccc2c(cnn2C2CCN(C(=O)NC3CCC(OC)CC3)CC2)c1 (stereo not shown) [Example 76] | 420%
CCOCc1ccc2c(cnn2C2CCN(C(=O)NC3CCC(F)(F)CC3)CC2)c1 [Example 207] | 335%
CCc1ccc2c(cnn2[C@H]2CC[C@@H](C(=O)NC3CCCCC3)CC2)c1 [Example 127] | 806%
CC(=O)N1CCC(NC(=O)N2CCC(n3ncc4cc(C5CC5)ccc43)CC2)CC1 [Example 203] | 271%
COCc1c(C)ccc2c1cnn2C1CCN(C(=O)NC2CCC(F)(F)CC2)CC1 [Example 213] | 800%
COC(C)c1cccc2c1cnn2C1CCN(C(=O)NC2CCC(F)(F)CC2)CC1 (stereo not shown) [Example 231] | 647%
COC1CCC(NC(=O)N2CCC(n3ncc4c(C)cccc43)CC2)CC1 (stereo not shown) [Example 94] | 154%
CC(C)Oc1cccc2c1cnn2C1CCN(C(=O)NC2CCCCC2)CC1 [Example 180] | 274%

SMILES | α7PAM (%) @ 10 μmol/L
CCc1ccc2c(cnn2C2CCCN(C(=O)NC3CCC(OC)CC3)CC2)c1 (stereo not shown) [Example 84] | 179%
CCOc1c(C)ccc2c1cnn2C1CCN(C(=O)NC2CCC(F)(F)CC2)CC1 [Example 269] | 835%
COCCc1ccc2c(cnn2C2CCN(C(=O)NC3CCC(F)(F)CC3)CC2)c1 [Example 239] | 485%
CC(C)c1ccc2c(cnn2C2CCN(C(=O)NC3CCOCC3)CC2)c1 [Example 14] | 728%
CCN(C(=O)N1CCC(n2ncc3ccccc32)CC1)C1CCC(OC)CC1 (stereo not shown) [Example 51] | 295%
CCOc1c(CC)ccc2c1cnn2C1CCN(C(=O)NC2CCC(F)(F)CC2)CC1 [Example 271] | 931%
O=C(NC1CCC(F)(F)CC1)N1CCC(n2ncc3c(F)cccc32)CC1 [Example 190] | 256%
COCc1nn(C2CCN(C(=O)NC3CCCCC3)CC2)c2ccc(C)cc12 [Example 68] | 430%
COc1ccc2c(cnn2C2CCN(C(=O)NC3CCC(F)(F)CC3)CC2)c1OC [Example 305] | 729%
CO[C@H]1CC[C@H](NC(=O)N2CCC(n3ncc4c(F)c(C)ccc43)CC2)CC1 [Example 223] | 257%
O=C(NC1CCC(F)(F)CC1)N1CCC(n2ncc3cc(C4CC4)ccc32)CC1 [Example 77] | 1780%
COC1CCC(NC(=O)N2CCC(n3ncc4c(OC(F)F)cccc43)CC2)CC1 (stereo not shown) [Example 202] | 195%
COC1CCC(NC(=O)N2CCC(n3ncc4c(Br)cccc43)CC2)CC1 (stereo not shown) [Example 98] | 89%
[2H]C([2H])([2H])O[C@H]1CC[C@H](NC(=O)N2CCC(n3ncc4cc(C(F)(F)F)ccc43)CC2)CC1 [Example 178, N-{trans-4-[(^2H3)methoxy]cyclohexyl}-4-[5-(trifluoromethyl)-1H-indazol-1-yl]piperidine-1-carboxamide] | 524%
CCc1ccc2c(cnn2[C@H]2CC[C@@H](C(=O)NC3CCC(OC)CC3)CC2)c1 (stereo partly shown) [Example 130] | 252%
CCOc1ccc2c(cnn2C2CCN(C(=O)c3ccc(F)cn3)CC2)c1 [Example 114] | 189%
O=C(NC1CCC(F)(F)CC1)N1CCC(n2ncc3cc(C(F)(F)F)ccc32)CC1 [Example 164] | 979%
COc1nn(C2CCN(C(=O)N[C@H]3CC[C@H](OC)CC3)CC2)c2ccc(C)cc12 [Example 147] | 181%
CCc1ccc2c(cnn2C2CCN(C(=O)NC3CCOC(C)(C)C3)CC2)c1 (stereo not shown) [Example 21] | 523%
CCc1cccc2c1cnn2C1CCN(C(=O)C2CCC(F)(F)CC2)CC1 [Example 139] | 1018%

SMILES | α7PAM (%) @ 10 μmol/L
COCc1c(C2CC2)ccc2c1cnn2C1CCN(C(=O)N[C@H]2CC[C@H](OC)CC2)CC1 [Example 216] | 271%
COCCCc1ccc2c(cnn2C2CCN(C(=O)N[C@H]3CC[C@H](OC)CC3)CC2)c1 [Example 32] | 430%
CCc1ccc2c(cnn2C2CCN(C(=O)c3ccc(F)cn3)CC2)c1 [Example 118] | 188%
Cc1ccc2c(cnn2C2CCN(C(=O)C3CCCC3)CC2)c1 [Example 106] | 164%
O=C(NC1CCC(F)(F)CC1)N1CCC(n2ncc3c(OC4CC4)cccc32)CC1 [Example 250] | 1215%
O=C(NC1CCC(OC(F)F)CC1)N1CCC(n2ncc3cc(C4CC4)ccc32)CC1 (stereo not shown) [Example 205] | 1187%
Cc1ccc2c(cnn2C2CCN(C(=O)NC3CCOC(C)(C)C3)CC2)c1 (stereo not shown) [Example 12] | 231%
CCc1ccc2c(cnn2[C@H]2CC[C@@H](NC(=O)[C@H]3CC[C@@H](OC)CC3)CC2)c1 [Example 124] | 1230%
CCc1ccc2c(cnn2C2CCN(C(=O)NC3CCCC3)CC2)c1 [Example 20] | 2215%
CCOc1ccc2c(cnn2C2CCN(C(=O)c3ccc(C(F)(F)F)cn3)CC2)c1 [Example 132] | 361%
Cc1ccc2c(cnn2C2CCN(C(=O)NC3CC(F)(F)C3)CC2)c1 [Example 218] | 648%
CCc1ccc2c(cnn2C2CCN(C(=O)NC3CCC(F)(F)CC3)CC2)c1OC [Example 256] | 1668%
CCc1ccc2c(cnn2[C@H]2CC[C@@H](C(=O)NC3CCOCC3)CC2)c1 [Example 129] | 325%
CCc1nn(C2CCN(C(=O)NC3CCOCC3)CC2)c2ccc(C)cc12 [Example 43] | 528%
CCc1ccc2c(cnn2C2CCN(C(=O)C3CCC(F)(F)CC3)CC2)c1 [Example 113] | 654%
CCc1ccc2c(c1)c(OC)nn2C1CCN(C(=O)NC2CCOCC2)CC1 [Example 150] | 643%
CC(C)(C)NC(=O)N1CCC(n2ncc3cc(C4CC4)ccc32)CC1 [Example 172] | 541%
CC(C)c1ccc2c(cnn2C2CCN(C(=O)C3CCOCC3)CC2)c1 [Example 107] | 159%
CCc1ccc2c(c1)c(OC)nn2C1CCN(C(=O)NC2CCCCC2)CC1 [Example 151] | 746%

Same assay, conditions: test compound 10 μmol/L; ACh added at EC20; ratio of RLU (Max-Min) of test wells to control wells; read-out: α7PAM (%) @ 10 μmol/L

SMILES | activity at 10 µM
Cc1c(C2CC2)ccc2c1cnn2C1CCN(C(=O)NC2CCOCC2)CC1 [Example 283, 4-(5-cyclopropyl-4-methyl-1H-indazol-1-yl)-N-(tetrahydro-2H-pyran-4-yl)piperidine-1-carboxamide] | 845%
CCOc1c(CC)ccc2c1cnn2C1CCN(C(=O)N[C@H]2CC[C@H](OC)CC2)CC1 [Example 272, 4-(4-ethoxy-5-ethyl-1H-indazol-1-yl)-N-(trans-4-methoxycyclohexyl)piperidine-1-carboxamide] | 442%
COCc1nn(C2CCN(C(=O)NC3CCC(F)(F)CC3)CC2)c2ccc(C)cc12 [Example 36, N-(4,4-difluorocyclohexyl)-4-(3-(methoxymethyl)-5-methyl-1H-indazol-1-yl)piperidine-1-carboxamide] | 897%
COc1c(C2CC2)ccc2c1cnn2C1CCN(C(=O)N[C@H]2CC[C@H](OC)CC2)CC1 [Example 263, 4-(5-cyclopropyl-4-methoxy-1H-indazol-1-yl)-N-(trans-4-methoxycyclohexyl)piperidine-1-carboxamide] | 749%
CC(C)Oc1ccc2c(cnn2C2CCN(C(=O)NC3CCC(F)(F)CC3)CC2)c1 [Example 46, N-(4,4-difluorocyclohexyl)-4-(5-isopropoxy-1H-indazol-1-yl)piperidine-1-carboxamide] | 544%
CCc1nn(C2CCN(C(=O)NC3CCC(F)(F)CC3)CC2)c2ccc(C)cc12 [Example 42, N-(4,4-difluorocyclohexyl)-4-(3-ethyl-5-methyl-1H-indazol-1-yl)piperidine-1-carboxamide] | 241%
